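Protocol summary: plate cells (96-well), add compound at 5 concentrations, incubate 48 h, interpolate endpoints linearly. TGI: concentration producing complete growth inhibition.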
How the values were obtained:
Assay in all cases: DTP human tumour cell line panel, 48 h
A549 NSCLC = tested on: A549 NSCLC
PC-3 prostate = tested on: PC-3 prostate
RXF 393 renal = tested on: RXF 393 renal
SK-MEL-28 melanoma = tested on: SK-MEL-28 melanoma
CCRF-CEM leukemia = tested on: CCRF-CEM leukemia
SF-539 CNS = tested on: SF-539 CNS
SNB-19 CNS = tested on: SNB-19 CNS
HCT-116 colon = tested on: HCT-116 colon
MDA-MB-435 = tested on: MDA-MB-435
OVCAR-5 ovarian = tested on: OVCAR-5 ovarian
U251 CNS = tested on: U251 CNS
HOP-62 NSCLC = tested on: HOP-62 NSCLC
HL-60(TB) leukemia = tested on: HL-60(TB) leukemia
NCI-H522 lung = tested on: NCI-H522 lung
HCT-15 colon = tested on: HCT-15 colon
SF-295 CNS = tested on: SF-295 CNS
LOX IMVI melanoma = tested on: LOX IMVI melanoma
DU-145 prostate = tested on: DU-145 prostate
HCC-2998 colon = tested on: HCC-2998 colon
A498 renal = tested on: A498 renal
OVCAR-4 ovarian = tested on: OVCAR-4 ovarian
UACC-257 melanoma = tested on: UACC-257 melanoma
SK-MEL-5 melanoma = tested on: SK-MEL-5 melanoma
MDA-N = tested on: MDA-N
IGROV1 ovarian = tested on: IGROV1 ovarian
MOLT-4 leukemia = tested on: MOLT-4 leukemia
NCI-H460 lung = tested on: NCI-H460 lung
MCF7 breast = tested on: MCF7 breast
NCI/ADR-RES ovarian = tested on: NCI/ADR-RES ovarian
CAKI-1 renal = tested on: CAKI-1 renal
MALME-3M melanoma = tested on: MALME-3M melanoma
COLO 205 colon = tested on: COLO 205 colon
HOP-92 NSCLC = tested on: HOP-92 NSCLC
SN12C renal = tested on: SN12C renal
SNB-75 CNS = tested on: SNB-75 CNS
HS 578T breast = tested on: HS 578T breast
ACHN renal = tested on: ACHN renal
K-562 leukemia = tested on: K-562 leukemia
EKVX NSCLC = tested on: EKVX NSCLC
UACC-62 melanoma = tested on: UACC-62 melanoma
SW-620 colon = tested on: SW-620 colon
MDA-MB-231 breast = tested on: MDA-MB-231 breast
SF-268 CNS = tested on: SF-268 CNS
786-0 renal = tested on: 786-0 renal
OVCAR-3 ovarian = tested on: OVCAR-3 ovarian
TK-10 renal = tested on: TK-10 renal
KM12 colon = tested on: KM12 colon
HT29 colon = tested on: HT29 colon
OVCAR-8 ovarian = tested on: OVCAR-8 ovarian
NCI-H23 lung = tested on: NCI-H23 lung
T-47D breast = tested on: T-47D breast
M14 melanoma = tested on: M14 melanoma
RPMI-8226 leukemia = tested on: RPMI-8226 leukemia
SK-MEL-2 melanoma = tested on: SK-MEL-2 melanoma
NCI-H226 lung = tested on: NCI-H226 lung
SR leukemia = tested on: SR leukemia
SK-OV-3 ovarian = tested on: SK-OV-3 ovarian
BT-549 breast = tested on: BT-549 breast
UO-31 renal = tested on: UO-31 renal

Molecule `O=C(CCCN1CCc2[nH]c3cc(F)ccc3c2C1)c1ccc(F)cc1` has a TGI (A549 NSCLC) of 29.5 µM, a TGI (PC-3 prostate) of 25.7 µM and a TGI (RXF 393 renal) of 28.3 µM. The TGI (SK-MEL-28 melanoma) was 34.9 µM, the TGI (CCRF-CEM leukemia) was 30.9 µM and the TGI (SF-539 CNS) was 30.5 µM. The TGI (SNB-19 CNS) was > 100 µM, the TGI (HCT-116 colon) was 24.2 µM and the TGI (MDA-MB-435) was 25.6 µM. For the same molecule, the TGI (OVCAR-5 ovarian) was 24.7 µM, the TGI (U251 CNS) was 29.8 µM and the TGI (HOP-62 NSCLC) was 29.8 µM. For the same molecule, the TGI (HL-60(TB) leukemia) was 27.2 µM, the TGI (NCI-H522 lung) was 35.6 µM and the TGI (HCT-15 colon) was 31.3 µM. It also gave a TGI (SF-295 CNS) of 32.7 µM, a TGI (LOX IMVI melanoma) of 17.5 µM and a TGI (DU-145 prostate) of 26.1 µM. For the same molecule, the TGI (HCC-2998 colon) was 11.9 µM, the TGI (A498 renal) was 24.4 µM and the TGI (OVCAR-4 ovarian) was 26.9 µM. It also gave a TGI (UACC-257 melanoma) of 28.8 µM, a TGI (SK-MEL-5 melanoma) of 30.8 µM and a TGI (MDA-N) of 29.2 µM. For the same molecule, the TGI (IGROV1 ovarian) was 30.2 µM, the TGI (MOLT-4 leukemia) was 29 µM and the TGI (NCI-H460 lung) was 23.9 µM. The TGI (MCF7 breast) was 18.3 µM, the TGI (NCI/ADR-RES ovarian) was 36.1 µM and the TGI (CAKI-1 renal) was > 100 µM. For the same molecule, the TGI (MALME-3M melanoma) was 26 µM, the TGI (COLO 205 colon) was 17.1 µM and the TGI (HOP-92 NSCLC) was 8.59 µM. The TGI (SN12C renal) was 27.7 µM, the TGI (SNB-75 CNS) was 22.9 µM and the TGI (HS 578T breast) was 30 µM. The TGI (ACHN renal) was 26.8 µM, the TGI (K-562 leukemia) was 22.5 µM and the TGI (EKVX NSCLC) was 29.3 µM. The TGI (UACC-62 melanoma) was 25.5 µM, the TGI (SW-620 colon) was > 100 µM and the TGI (MDA-MB-231 breast) was 25.5 µM. For the same molecule, the TGI (SF-268 CNS) was 26.7 µM, the TGI (786-0 renal) was 26.6 µM and the TGI (OVCAR-3 ovarian) was 28.1 µM. It also gave a TGI (TK-10 renal) of 24.9 µM, a TGI (KM12 colon) of 26.9 µM and a TGI (HT29 colon) of 20.5 µM. The TGI (OVCAR-8 ovarian) was 28.4 µM, the TGI (NCI-H23 lung) was 28 µM and the TGI (T-47D breast) was 36.1 µM. The TGI (M14 melanoma) was 22.2 µM, the TGI (RPMI-8226 leukemia) was 27.2 µM and the TGI (SK-MEL-2 melanoma) was 32.4 µM. For the same molecule, the TGI (NCI-H226 lung) was 38.7 µM and the TGI (SR leukemia) was 26.1 µM.

In the case of `C/C(=N\O)c1ccc(Nc2c3ccccc3nc3occc23)cc1`, the TGI (A549 NSCLC) is reported as > 11.9 µM, the TGI (PC-3 prostate) is reported as > 50 µM and the TGI (RXF 393 renal) is reported as 0.614 µM. The TGI (SK-MEL-28 melanoma) was > 18.5 µM, the TGI (CCRF-CEM leukemia) was 1.89 µM and the TGI (SF-539 CNS) was 0.732 µM. For the same molecule, the TGI (SNB-19 CNS) was > 50 µM, the TGI (HCT-116 colon) was 2.52 µM and the TGI (MDA-MB-435) was 0.0781 µM. For the same molecule, the TGI (OVCAR-5 ovarian) was > 50 µM, the TGI (U251 CNS) was > 24.6 µM and the TGI (HOP-62 NSCLC) was > 24.1 µM. It also gave a TGI (HL-60(TB) leukemia) of 6.95 µM, a TGI (NCI-H522 lung) of 0.287 µM and a TGI (HCT-15 colon) of 4.07 µM. For the same molecule, the TGI (SF-295 CNS) was 5.26 µM, the TGI (LOX IMVI melanoma) was > 50 µM and the TGI (DU-145 prostate) was > 15.3 µM. The TGI (HCC-2998 colon) was 6.35 µM, the TGI (A498 renal) was > 10 µM and the TGI (OVCAR-4 ovarian) was > 12.2 µM. The TGI (UACC-257 melanoma) was > 44.6 µM, the TGI (SK-MEL-5 melanoma) was 6.77 µM and the TGI (MDA-N) was > 50 µM. The TGI (SK-OV-3 ovarian) was 5.92 µM, the TGI (IGROV1 ovarian) was 8.59 µM and the TGI (MOLT-4 leukemia) was > 21.3 µM. For the same molecule, the TGI (NCI-H460 lung) was 5.77 µM, the TGI (NCI/ADR-RES ovarian) was 0.484 µM and the TGI (MALME-3M melanoma) was > 50 µM. The TGI (COLO 205 colon) was 0.65 µM, the TGI (HOP-92 NSCLC) was > 50 µM and the TGI (BT-549 breast) was > 12.4 µM. The TGI (SN12C renal) was > 50 µM, the TGI (SNB-75 CNS) was 3.78 µM and the TGI (ACHN renal) was > 50 µM. The TGI (K-562 leukemia) was > 50 µM, the TGI (EKVX NSCLC) was > 50 µM and the TGI (UACC-62 melanoma) was 16.6 µM. For the same molecule, the TGI (SW-620 colon) was > 50 µM, the TGI (MDA-MB-231 breast) was > 39.3 µM and the TGI (SF-268 CNS) was > 43.9 µM. For the same molecule, the TGI (786-0 renal) was 3.3 µM, the TGI (OVCAR-3 ovarian) was > 50 µM and the TGI (TK-10 renal) was 25.4 µM. For the same molecule, the TGI (KM12 colon) was 27.4 µM, the TGI (HT29 colon) was 0.72 µM and the TGI (OVCAR-8 ovarian) was 7.34 µM. The TGI (NCI-H23 lung) was > 10.8 µM, the TGI (T-47D breast) was 25.7 µM and the TGI (M14 melanoma) was 3.5 µM. The TGI (RPMI-8226 leukemia) was 3.26 µM, the TGI (UO-31 renal) was > 50 µM and the TGI (SK-MEL-2 melanoma) was 3.5 µM. The TGI (NCI-H226 lung) was > 25.9 µM.
